Experimental data from US20260151403A1, “NEK7 DEGRADERS AND METHODS OF USE THEREOF” (Captor Therapeutics S.A., priority 2022, published 2026).
Where a name gives a salt, the structure may show the parent alone.

What was measured:
[1] = target: T1, [NEK7]-[compound of formula (I)]-[CRBN/DDB1] complex (Homo sapiens, UniProt Q8TDX7+Q96SW2); experiment: HTRF ternary complex assay; assay type: binding; details: dose-response, 180 min at 25° C.; for EC50: read-out: HTRF ternary complex Average pEC50 by molecule (converted)
Method: The effect of the molecular glue compounds of the invention on the formation of a ternary complex composed of [NEK7]-[compound of formula (I)]-[CRBN/DDB1] was investigated.
Mix solution of proteins and reagents was prepared: • 24 nM NEK7, 52.8 nM 6×His-CRBN/Strep-DDB1, 3 nM of Streptavidin-Eu cryptate […] and 6.67 nM of Anti-6×his-d2 […] was prepared in PPI Europium detection buffer (Cisbio) with 1 mM DTT.
The tested compounds in dose-response were dispensed onto a white 384-well low volume plate (Greiner, 784075). DMSO was backfilled to all wells, resulting in a final DMSO content of 0.5%. Wells containing only DMSO served as background.
The plate was sealed with transparent film and shaken using a VibroTurbulator for 60 sec at level 3.
The plate was then spun down shortly (10 s, 1000 rcf) and incubated at 25° C. for 180 min.
The read-out was performed with plate reader (Pherastar, BMG Labtech) in time resolved fluorescence mode. Filterset: TR 337 665 620.
The results were analyzed as follows: • 1) an average of fluorescence for background signal was calculated and used as a negative control; • 2) raw fluorescence values for tested compounds were normalized against negative controls; • 3) saturation curve was fitted to specific binding with Hill slope model; • 4) EC50 and pEC50 values were determined.

[2] = target: T1, [NEK7]-[compound of formula (I)]-[CRBN/DDB1] complex; experiment: AlphaLISA dose response ternary complex formation assay; assay type: binding; details: 1 μM compound, normalized to maximum signal of Compound 2 (positive control) and DMSO background; for activation at 1 µM: read-out: Normalized AlphaLISA ternary complex average signal at 1 μM molecule
Method: The effect of the molecular glue compounds of the invention on the formation of a ternary complex composed of [NEK7]-[compound of formula (I)]-[CRBN/DDB1] was investigated with two methods: AlphaLISA dose response assay or HTRF ternary complex assay.
Two types of protein solution were prepared: • 200 nM biotinylated NEK7, 40 μg/ml AlphaScreen Streptavidin-coated Donor Beads in HBS (10 mM HEPES, 150 mM NaCL, pH 7.4) buffer with 0.1% Tween-20 and 1 mM DTT, • 200 nM 6×His-CRBN/Strep-DDB1, 40 μg/ml AlphaLISA Anti-6×His Acceptor beads in HBS buffer with 0.1% Tween-20 and 1 mM DTT.
The prepared solutions were incubated at room temperature for 30 min and then the solution containing the donor beads was mixed with the solution containing the acceptor beads.
The tested compounds were dispensed onto a white 384-well AlphaPlate 384 SW. DMSO was backfilled to all wells, resulting in a final DMSO content of 2%. Wells containing only DMSO served as background. Next, 10 μl of solution with donor and acceptor beads was added to the wells.
The plate was sealed with transparent film and shaken using a VibroTurbulator for 60 sec at room temperature, level 3. The plate was then spun down shortly (10 s, 1000 rcf, room temperature) and incubated at 25° C. for 30 min.
The read-out was performed with PerkinElmer Enspire Multimode Plate Reader (method for AlphaLISA 384-well low volume, Filterset: λexc=680 nm, λem=615 nm).
The results were analyzed as follows: • 1) an average of luminescence for background signal was calculated and used as a negative control; • 2) average of the maximum measured luminescence for Compound 2 was calculated and used as an internal positive control; • 3) raw luminescence values were normalized against positive and negative controls; • 4) Normalized responses to Compound 2 were determined.

NEK7-HiBiT protein = NEK7-HiBiT protein (Homo sapiens, UniProt Q8TDX7); experiment: NEK7-HiBiT degradation assay (Nano-Glo HiBiT Lytic Assay) in HEK293 NEK7-HiBiT cells; assay type: cell-based; details: 24 h, conc. 0.1, 1 and 10 μM tested, concentration of the table values not stated, mean of 3 technical replicates
Method: HEK293 NEK7-HiBiT cells were generated using CRISPR-Cas9 system. HEK293 cells were transformed with pSpCas9-BB-2A-Puro v2.0 plasmid carrying gRNA targeting the N-terminus of NEK7 and ssODN template containing the HiBiT tag sequence with flanking homology sequences. Neon Transfection System (Thermo Fisher Scientific) was used for electroporation. HEK293 NEK7-HiBiT cells were cultured with DMEM Glutamax (Gibco) supplemented with 10% heat inactivated FBS (Gibco). After transfection the culture medium was changed to DMEM Glutamax with 10% heat-inactivated FBS and 1% Penicillin-Streptomycin (Biowest) supplemented with Puromycin (2 μg/ml; Invivogen) for clonal selection. In order to isolate single cell clones for further validation and analysis, limiting dilution cloning in 96-well plates was performed. When the single clones reached confluency, HiBiT Lytic Assay (Promega) was performed in order to identify HiBiT positive clones. The clone selected for further studies was verified and validated using genotyping and HiBiT Blotting (Promega).
Selected clone of HEK293 NEK7-HiBiT cells was maintained in the DMEM-Glutamax medium supplemented with 10% of heat-inactivated FBS (Gibco) and 1% of Penicillin-Streptomycin Solution 100x (Biowest) at 37° C., 5% CO2 and subcultured every 2-3 days.
For Nano-Glo HiBiT Lytic Assay HEK293 NEK7-HiBiT cells were seeded at the density 2×10^3 cells in triplicates in the 40 μL of growth medium per single well on 384 well plate (Greiner Bio-One). Compounds or DMSO were added to treatment plates using Echo555 Liquid Handler and incubated at 37° C., 5% CO2 for 24 hours. After incubation 40 μL of Nano-Glo HiBiT Lytic Reagent (prepared according to the manufacturer protocol) were added to 40 μL of the cell culture medium present in each well. The plate content was briefly mixed (460 rpm) on an orbital shaker to ensure cell lysis. The plate was left at RT protected from light for another 10 min to stabilize the luminescent signal. The luminescence signal was measured using CLARIOstar Multimode Plate Reader. Focus and gain were adjusted to DMSO treated cells. The results were calculated as the NEK7-HiBiT % relative to the DMSO control of 3 technical replicates relative to the DMSO control.
HEK293 NEK7-HiBiT cells were treated with the compounds (conc. 0.1, 1 and 10 μM) or DMSO for 24 h. After incubation with compounds NEK7-HiBiT degradation was measured as a luminescence signal using CLARIOstar Multimode Plate reader.
Additionally, compounds reducing NEK7-HiBiT protein level by >=50% at 0.1 μM, were also identified.

Chain of NEK7-HiBiT protein (Q8TDX7 whole entry): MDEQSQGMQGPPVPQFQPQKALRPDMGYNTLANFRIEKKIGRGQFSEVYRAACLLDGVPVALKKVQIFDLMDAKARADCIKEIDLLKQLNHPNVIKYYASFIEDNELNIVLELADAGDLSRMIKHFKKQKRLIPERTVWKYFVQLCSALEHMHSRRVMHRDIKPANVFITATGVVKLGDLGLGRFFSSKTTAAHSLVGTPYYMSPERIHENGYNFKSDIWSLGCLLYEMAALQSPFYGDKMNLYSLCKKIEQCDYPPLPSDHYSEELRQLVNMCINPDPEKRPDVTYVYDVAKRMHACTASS
Chain of NEK7-HiBiT protein (Q96SW2 whole entry, further chain): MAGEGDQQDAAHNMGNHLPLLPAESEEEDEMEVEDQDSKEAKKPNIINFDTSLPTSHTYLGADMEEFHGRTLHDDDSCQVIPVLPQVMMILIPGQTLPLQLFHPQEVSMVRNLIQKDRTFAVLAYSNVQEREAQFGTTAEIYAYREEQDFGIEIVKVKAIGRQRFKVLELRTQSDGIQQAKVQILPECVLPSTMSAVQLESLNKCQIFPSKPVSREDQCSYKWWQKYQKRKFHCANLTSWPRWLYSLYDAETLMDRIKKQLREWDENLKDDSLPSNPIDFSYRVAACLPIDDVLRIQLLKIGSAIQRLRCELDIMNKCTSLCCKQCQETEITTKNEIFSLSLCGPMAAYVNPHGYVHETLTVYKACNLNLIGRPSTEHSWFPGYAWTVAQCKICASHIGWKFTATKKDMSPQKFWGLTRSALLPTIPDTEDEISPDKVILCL
Chain of NEK7-HiBiT protein (Q16531 whole entry partner): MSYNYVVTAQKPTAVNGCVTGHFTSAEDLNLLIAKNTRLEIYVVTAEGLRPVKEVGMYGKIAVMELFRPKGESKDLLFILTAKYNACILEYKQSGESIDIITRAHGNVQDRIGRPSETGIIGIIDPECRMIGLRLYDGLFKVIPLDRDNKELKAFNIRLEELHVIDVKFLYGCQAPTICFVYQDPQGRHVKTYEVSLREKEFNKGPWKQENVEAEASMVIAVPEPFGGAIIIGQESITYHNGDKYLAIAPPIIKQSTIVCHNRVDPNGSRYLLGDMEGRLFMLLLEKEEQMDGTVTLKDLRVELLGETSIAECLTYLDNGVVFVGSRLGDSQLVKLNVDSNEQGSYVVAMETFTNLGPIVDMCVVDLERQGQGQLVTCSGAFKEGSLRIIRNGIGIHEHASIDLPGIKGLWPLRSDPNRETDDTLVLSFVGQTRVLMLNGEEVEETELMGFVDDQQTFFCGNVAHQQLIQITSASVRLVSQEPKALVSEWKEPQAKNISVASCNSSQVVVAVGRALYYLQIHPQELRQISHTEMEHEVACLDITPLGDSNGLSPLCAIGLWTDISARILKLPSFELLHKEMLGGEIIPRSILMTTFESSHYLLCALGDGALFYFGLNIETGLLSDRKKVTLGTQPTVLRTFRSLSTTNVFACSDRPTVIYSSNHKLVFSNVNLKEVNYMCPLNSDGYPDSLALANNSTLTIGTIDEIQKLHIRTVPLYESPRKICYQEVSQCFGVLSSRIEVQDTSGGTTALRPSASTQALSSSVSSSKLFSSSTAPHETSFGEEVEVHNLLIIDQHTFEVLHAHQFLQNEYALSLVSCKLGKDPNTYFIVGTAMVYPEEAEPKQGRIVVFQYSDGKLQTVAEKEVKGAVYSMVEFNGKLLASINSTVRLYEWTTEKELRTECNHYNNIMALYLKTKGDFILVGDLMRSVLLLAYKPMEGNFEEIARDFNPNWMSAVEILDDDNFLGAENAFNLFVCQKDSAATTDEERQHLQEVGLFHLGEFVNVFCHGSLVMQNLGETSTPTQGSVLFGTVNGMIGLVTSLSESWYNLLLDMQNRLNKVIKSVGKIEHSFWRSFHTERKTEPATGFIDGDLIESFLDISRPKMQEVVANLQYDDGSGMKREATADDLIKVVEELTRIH
T1 sequence (Q8TDX7 whole entry): as the sequence (Q8TDX7 whole entry) above
T1 sequence (Q96SW2 whole entry): as the sequence (Q96SW2 whole entry, further chain) above
T1 sequence (Q16531 whole entry partner): as the sequence (Q16531 whole entry partner) above

| Compound | EC50 [1] [nM] | activation at 1 µM [2] [%] | Levels of NEK7-HiBiT Protein (as a % of DMSO control) (NEK7-HiBiT protein) | Normalized AlphaLISA ternary complex average signal at 1 μM molecule [2] | HTRF ternary complex Average pEC50 by molecule [1] |
| --- | --- | --- | --- | --- | --- |
| O=C1CCC(N2C(=O)c3cccc4c(C5CCCCN5)ccc2c34)C(=O)N1 (stereo not drawn) [Compound 59, 3-(2-oxo-6-(piperidin-2-yl)benzo[cd]indol-1 (2H)-yl)piperidine-2,6-dione] | > 3160 | < 10 | D (Levels of NEK7-HiBiT Protein ≥ 75%) |  |  |
| O=C1CCC(N2Cc3cc(C4CCCC(C(F)(F)F)N4)ccc3C2=O)C(=O)N1 (stereo not drawn) [Compound 60, 3-(1-oxo-5-(6-(trifluoromethyl)piperidin-2-yl)isoindolin-2-yl)piperidine-2,6-dione] | 316 to 1000 | < 10 | C (Levels of NEK7-HiBiT Protein > 50% and <75%) |  |  |
| O=C1CCC(N2Cc3cc(C4CCCN4)ccc3C2=O)C(=O)N1 (stereo not drawn) [Compound 6, 3-(1-oxo-5-(pyrrolidin-2-yl)isoindolin-2-yl)piperidine-2,6-dione] | 316 to 1000 | 20 to 80 | A (Levels of NEK7-HiBiT Protein ≤ 25%) |  |  |
| O=C1CCC(N2Cc3cc(C4CCCC(=O)N4)ccc3C2=O)C(=O)N1 (stereo not drawn) [Compound 42, 3-(1-oxo-5-(6-oxopiperidin-2-yl)isoindolin-2-yl)piperidine-2,6-dione] | > 3160 | < 10 | D (Levels of NEK7-HiBiT Protein ≥ 75%) |  |  |
| O=C1CCC(N2Cc3cc(C4COCCN4)ccc3C2=O)C(=O)N1 (stereo not drawn) [Compound 61, 3-(5-(morpholin-3-yl)-1-oxoisoindolin-2-yl)piperidine-2,6-dione] | 100 to 316 | 10 to 20 | C (Levels of NEK7-HiBiT Protein > 50% and <75%) |  |  |
| O=C1CCC(N2Cc3cc(C4CCC(c5ccccc5)CN4)ccc3C2=O)C(=O)N1 (single isomer, unassigned) [32 Isomer 2, 3-(1-oxo-5-(5-phenylpiperidin-2-yl)isoindolin-2-yl)piperidine-2,6-dione] | 316 to 1000 |  | A (Levels of NEK7-HiBiT Protein ≤ 25%) | A (Normalized activity > 80%) |  |
| 3-(5-((2R,6S)-6-butyltetrahydro-2H-pyran-2-yl)-1-oxoisoindolin-2-yl)piperidine-2,6-dione and 3-(5-((2S,6R)-6-butyltetrahydro-2H-pyran-2-yl)-1-oxoisoindolin-2-yl)piperidine-2,6-dione [69 Isomer 1] |  |  | A (Levels of NEK7-HiBiT Protein ≤ 25%) | A (Normalized activity > 80%) | +++ (6.5 > pEC50 > 6.0) |
| O=C1CCC(N2C(=O)c3ccc(C4CCCCN4)c4cccc2c34)C(=O)N1 (stereo not drawn) [Compound 66, 3-(2-oxo-5-(piperidin-2-yl)benzo[cd]indol-1 (2H)-yl)piperidine-2,6-dione trifluoroacetate] | 100 to 316 | 10 to 20 | B (Levels of NEK7-HiBiT Protein > 25% and ≤50%) |  |  |
| CC1c2cc(-c3ccccn3)ccc2C(=O)N1C1CCC(=O)NC1=O (stereo not drawn) [24(2), 3-(3-methyl-1-oxo-5-(pyridin-2-yl)isoindolin-2-yl)piperidine-2,6-dione] | 100 to 316 | > 80 | A (Levels of NEK7-HiBiT Protein ≤ 25%) |  |  |
| O=C1CCC(N2Cc3c(csc3-c3ccccn3)C2=O)C(=O)N1 (stereo not drawn) [31(2), 3-(4-oxo-1-(pyridin-2-yl)-4H-thieno[3,4-c]pyrrol-5 (6H)-yl)piperidine-2,6-dione] | > 3160 | < 10 | D (Levels of NEK7-HiBiT Protein ≥ 75%) |  |  |
| Cc1cc(C2CCCCN2)cc2c1C(=O)N(C1CCC(=O)NC1=O)C2 (stereo not drawn) [Compound 21, 3-(7-methyl-1-oxo-5-(piperidin-2-yl)isoindolin-2-yl)piperidine-2,6-dione] | > 3160 | < 10 | D (Levels of NEK7-HiBiT Protein ≥ 75%) |  |  |
| O=C1CCC(N2Cc3cc(-c4cc5ccccc5cn4)ccc3C2=O)C(=O)N1 (stereo not drawn) [6(2), 3-(5-(isoquinolin-3-yl)-1-oxoisoindolin-2-yl)piperidine-2,6-dione] | 100 to 316 | > 80 | B (Levels of NEK7-HiBiT Protein > 25% and ≤50%) |  |  |
| O=C1CCC(N2Cc3cc(-c4ccc5ccccc5n4)ccc3C2=O)C(=O)N1 (stereo not drawn) [5(2), 3-(1-oxo-5-(quinolin-2-yl)isoindolin-2-yl)piperidine-2,6-dione] | 100 to 316 | > 80 | B (Levels of NEK7-HiBiT Protein > 25% and ≤50%) |  |  |
| O=C1CCC(N2Cc3cc(C4CCC(c5ccccc5)CO4)ccc3C2=O)C(=O)N1 (single isomer, unassigned) [74 Isomer 2, 3-(1-oxo-5-(5-phenyltetrahydro-2H-pyran-2-yl)isoindolin-2-yl)piperidine-2,6-dione] | 100 to 316 |  | A (Levels of NEK7-HiBiT Protein ≤ 25%) | A (Normalized activity > 80%) |  |
| O=C1CCC(N2C(=O)c3cccc4c(-c5ccccn5)ccc2c34)C(=O)N1 (stereo not drawn) [28(2), 3-(2-oxo-6-(pyridin-2-yl)benzo[cd]indol-1 (2H)-yl)piperidine-2,6-dione] | > 3160 | < 10 | C (Levels of NEK7-HiBiT Protein > 50% and <75%) |  |  |
| CCCCC1CCCC(c2ccc3c(c2)CN(C2CCC(=O)NC2=O)C3=O)N1 (mixture of isomers) [Compound 40, 3-(5-(6-butylpiperidin-2-yl)-1-oxoisoindolin-2-yl)piperidine-2,6-dione] | 100 to 316 | > 80 | A (Levels of NEK7-HiBiT Protein ≤ 25%) |  |  |
